Consider three molecules from patent EP4745118A1, “HYDROXAMIC ACID COMPOUND OR PHARMACEUTICALLY ACCEPTABLE SALT THEREOF, AND USE THEREOF AND PREPARATION METHOD THEREFOR” (priority 2023, dated 2025).

What all share (type): cell-based
One assay has as its system Vero cells. Put plainly: Vero cytotoxicity (CCK-8). Conditions: Chlorocebus sabaeus. The procedure:
All liquid was transferred to a 15 mL centrifuge tube and centrifuged at 800 rpm for 5 min. […] A cell counter was used to measure cell density. Cells were inoculated at 100 µL and a density of 3 × 10^5/mL into a 96-well plate, with 6 replicates per group, and incubated at 37°C for 4 hours to allow cells to adhere to the wall. The compound was twofold continuously diluted with PBS, and 10 µL of the compound with the corresponding concentration was added to the 96-well plate, and shaken and mixed well on a shaker, and then incubated at 37°C for 24 hours. 10 µL of CCK-8 reagent was added to the 96-well plate, mixed thoroughly on a shaker, and incubated at 37°C for 2 hours. A microplate reader was used to measure the absorbance at 450 nm wavelength, and the inhibition rate of the compound on Vero cells was calculated. Table 5 Vero cytotoxicity of 4 optical isomers and control drug

Another assay deals with Klebsiella pneumoniae. The experiment in a line: In vitro antibacterial activity, agar dilution method (MIC). Conditions: Klebsiella pneumoniae. As to the method: (§1) According to the relevant operating procedures of the Clinical Laboratory Standards Institute (CLSI) in the United States, an antimicrobial susceptibility testing was conducted using the agar dilution method. […]. The agar was allowed to solidify and set aside for later use.
(§2) The test bacteria were propagated in broth and adjusted to a turbidity of 0.5 McFarland (approximately 1-2 × 10^8 CFU/mL) using a turbidimeter before inoculation. The 0.5 McFarland bacterial solution was then diluted 10-fold in broth (approximately 1-2 × 10^7 CFU/mL). A multipoint inoculator was used to inoculate the above bacterial solution onto a series of plates containing different concentrations of drugs (with an inoculation amount of approximately 10^4 CFU per inoculation site). After incubation at a constant temperature of 35°C for 18 hours, results were observed. The minimum concentration of drugs contained in sterile growth plates was determined as the Minimal Inhibitory Concentration (MIC).
(In general: In agar dilution, organisms are placed on agar that contains the substance at set levels.)

For another assay, the system named is Serratia marcescens. The assay is described as above. The procedure:
as §1, §2

Another assay deals with Escherichia coli. The assay is described as above. Conditions: Escherichia coli. The procedure: as §1, §2
The test system of a further assay is Enterobacter aerogenes. The description is as above. The note with it: Klebsiella aerogenes. The procedure:
as §1, §2

The subject of a further assay is Pantoea agglomerans. The description is as above. The procedure: as §1, §2
The next assay has as its system Proteus vulgaris. The description is as above. The procedure:
as §1, §2

The subject of another assay is Proteus mirabilis. The description is as above. As to the method:
as §1, §2

Another assay has as its system Pseudomonas aeruginosa. Described as above. As to the method:
as §1, §2

The subject of another assay is Citrobacter freundii. The assay is described as above. The procedure: as §1, §2
Another assay relates to Shigella flexneri. The assay is described as above. The note with it: ATCC12022, Shigella flexneri ATCC 12022, 35°C, 18 hours, read-out: MIC. As to the method:
According to the relevant operating procedures of the Clinical Laboratory Standards Institute (CLSI) in the United States, an antimicrobial susceptibility testing was conducted using the agar dilution method. A 1920 µg/mL stock solution was serially diluted twofold with sterile water to obtain dilutions of 960, 480, 240, 120, 60, 30, 15, 7.5, 3.75, 1.88, 0.94, 0.47 µg/mL, and 1 mL of the dilution was taken respectively from the dilutions with different concentrations and added to a Petri dish, to which 14 mL of melted MH agar medium was added and mixed thoroughly, and the final concentration of the drug in the petri dish is 128, 64, 32, 16, 8, 4, 2, 1, 0.5, 0.25, 0.12, 0.06, and 0.03 µ g/mL, respectively. The agar was allowed to solidify and set aside for later use.
as §2

Setting [1] is: Vero cells, 24 hours incubation, CCK-8, read-out: IC50.
Where [2] appears, read: 18 h, Klebsiella pneumoniae 09-20 (mcr-1), agar dilution, 35°C, 18 hours, read-out: MIC.
The mark [3] stands for this setting: 18 h, Klebsiella pneumoniae 17-R27 (CRE), agar dilution, 35°C, 18 hours, read-out: MIC.
[4] abbreviates: 18 h, Klebsiella pneumoniae 18-8 (ESBLs-producing), agar dilution, 35°C, 18 hours, read-out: MIC.
Where [5] appears, read: ATCC700603, 18 h, Klebsiella pneumoniae ATCC 700603 (ESBLs-producing), agar dilution, 35°C, 18 hours, read-out: MIC.
Where [6] appears, read: ATCCBAA2146, 18 h, Klebsiella pneumoniae ATCC BAA-2146 (CRE, NDM-1-producing), agar dilution, 35°C, 18 hours, read-out: MIC.
Setting [7] is: ATCC21074, Serratia marcescens ATCC 21074, agar dilution, 35°C, 18 hours, read-out: MIC.
The mark [8] stands for this setting: 18 h, Escherichia coli 13-43 (mcr-1), agar dilution, 35°C, 18 hours, read-out: MIC.
[9] abbreviates: 18 h, Escherichia coli 17-R28 (CRE, NDM-1-producing), agar dilution, 35°C, 18 hours, read-out: MIC.
Where [10] appears, read: ATCC2469, 18 h, Escherichia coli ATCC 2469 (CRE, NDM-1-producing), agar dilution, 35°C, 18 hours, read-out: MIC.
[11] abbreviates: ATCC35218, 18 h, Escherichia coli ATCC 35218 (ESBLs-producing), agar dilution, 35°C, 18 hours, read-out: MIC.
[12] abbreviates: ATCC13048, Enterobacter aerogenes ATCC 13048, agar dilution, 35°C, 18 hours, read-out: MIC.
Where [13] appears, read: ATCC27993, Pantoea agglomerans ATCC 27993, agar dilution, 35°C, 18 hours, read-out: MIC.
Setting [14] is: ATCC29905, Proteus vulgaris ATCC 29905, agar dilution, 35°C, 18 hours, read-out: MIC.
Setting [15] is: ATCC49565, Proteus mirabilis ATCC 49565, agar dilution, 35°C, 18 hours, read-out: MIC.
The mark [16] stands for this setting: Pseudomonas aeruginosa PAO1, agar dilution, 35°C, 18 hours, read-out: MIC.
Where [17] appears, read: ATCC43864, Citrobacter freundii ATCC 43864, agar dilution, 35°C, 18 hours, read-out: MIC.

Converted amounts (≈) assume the structure as drawn. Like-named read-outs stand apart in the source and are kept apart here.

By IC50 is commonly meant the concentration that inhibits the measured activity by half. The MIC is the lowest concentration found to suppress growth. Take `CO[C@H]1CCC[C@@H]1C#CC#Cc1ccc(C(=O)N[C@H](C(=O)NO)C(C)(C)N)cc1` [A]: the IC50 in the assay on Vero cells (setting [1]) is greater than 64 µM. Besides, the MIC in the assay with Klebsiella pneumoniae (setting [2]) turned out to be 1 µg/mL (≈ 2.52 µM); with Klebsiella pneumoniae (setting [3]), 1 µg/mL (≈ 2.52 µM); in the assay on Klebsiella pneumoniae (setting [4]), 0.5 µg/mL (≈ 1.26 µM); in the assay on Klebsiella pneumoniae (setting [5]), 8 µg/mL (≈ 20.1 µM); in the assay with Klebsiella pneumoniae (setting [6]), 8 µg/mL (≈ 20.1 µM); with Serratia marcescens (setting [7]), 0.25 µg/mL (≈ 0.629 µM). For the same molecule, the MIC in the assay on Escherichia coli (setting [8]) came to 1 µg/mL (≈ 2.52 µM); in the assay on Escherichia coli (setting [9]), 0.25 µg/mL (≈ 0.629 µM); with Escherichia coli (setting [10]), 0.12 µg/mL (≈ 0.302 µM); with Escherichia coli (setting [11]) it was 0.25 µg/mL (≈ 0.629 µM); in the assay on Enterobacter aerogenes (setting [12]), 0.5 µg/mL (≈ 1.26 µM); in the assay with Pantoea agglomerans (setting [13]) it was 2 µg/mL (≈ 5.03 µM). The MIC with Proteus vulgaris (setting [14]) is 0.5 µg/mL (≈ 1.26 µM); with Proteus mirabilis (setting [15]), 1 µg/mL (≈ 2.52 µM); in the assay on Pseudomonas aeruginosa (setting [16]), 2 µg/mL (≈ 5.03 µM); in the assay with Citrobacter freundii (setting [17]), 0.25 µg/mL (≈ 0.629 µM); in the assay on Shigella flexneri it was 0.25 µg/mL (≈ 0.629 µM).

Consider `COC[C@@H]1C[C@H]1C#CC#Cc1ccc(C(=O)N[C@H](C(=O)NO)C(C)(C)N)cc1` [Ia, N-(S)-3-amino-1-hydroxyamino-3-methyl-1-oxobutan-2-yl-4-[[(1R,2R)-2-(methoxymethylene)cyclopropyl]but-1,3-diynyl]benzamide], for which the IC50 in the assay on Vero cells (setting [1]) was greater than 128 µM. For the same molecule, the minimal inhibitory concentration (MIC) in the assay on Klebsiella pneumoniae (setting [2]) was 0.25 µg/mL (≈ 0.652 µM); in the assay with Klebsiella pneumoniae (setting [3]), 0.5 µg/mL (≈ 1.3 µM); with Klebsiella pneumoniae (setting [4]), 0.06 µg/mL (≈ 0.156 µM); in the assay on Klebsiella pneumoniae (setting [5]) it was 1 µg/mL (≈ 2.61 µM); in the assay with Klebsiella pneumoniae (setting [6]), 1 µg/mL (≈ 2.61 µM); with Serratia marcescens (setting [7]), 0.25 µg/mL (≈ 0.652 µM). The MIC in the assay on Escherichia coli (setting [8]) was found to be 0.12 µg/mL (≈ 0.313 µM); in the assay on Escherichia coli (setting [9]), 0.12 µg/mL (≈ 0.313 µM); in the assay with Escherichia coli (setting [10]) it was 0.12 µg/mL (≈ 0.313 µM); in the assay with Escherichia coli (setting [11]), 0.12 µg/mL (≈ 0.313 µM); in the assay with Enterobacter aerogenes (setting [12]) it was 0.5 µg/mL (≈ 1.3 µM); in the assay on Pantoea agglomerans (setting [13]), 0.5 µg/mL (≈ 1.3 µM). The MIC is 0.12 µg/mL (≈ 0.313 µM) in the assay with Proteus vulgaris (setting [14]); 0.25 µg/mL (≈ 0.652 µM) in the assay on Proteus mirabilis (setting [15]); 0.5 µg/mL (≈ 1.3 µM) in the assay on Pseudomonas aeruginosa (setting [16]); 0.25 µg/mL (≈ 0.652 µM) with Citrobacter freundii (setting [17]); 0.06 µg/mL (≈ 0.156 µM) in the assay with Shigella flexneri.

As for `COC[C@H]1C[C@@H]1C#CC#Cc1ccc(C(=O)N[C@H](C(=O)NO)C(C)(C)N)cc1` [Ib, N-(S)-3-amino-1-hydroxyamino-3-methyl-1-oxobutan-2-yl-4-[[(1S,2S)-2-(methoxymethylene)cyclopropyl]but-1,3-diynyl]benzamide], the IC50 in the assay on Vero cells (Vero, 24 h) was greater than 128 µM. In addition, the MIC against Klebsiella pneumoniae (18 h) is 0.5 µg/mL (≈ 1.3 µM); against Klebsiella pneumoniae (18 h, Klebsiella pneumoniae 09-20 (mcr-1), agar dilution, 35°C) it was 0.5 µg/mL (≈ 1.3 µM); against Klebsiella pneumoniae (18 h, Klebsiella pneumoniae 17-R27 (CRE), agar dilution, 35°C), 0.25 µg/mL (≈ 0.652 µM); with Klebsiella pneumoniae (ATCC700603, 18 h), 1 µg/mL (≈ 2.61 µM); in the assay on Klebsiella pneumoniae (ATCCBAA2146, 18 h, Klebsiella pneumoniae ATCC BAA-2146 (CRE, NDM-1-producing), agar dilution, 35°C, 18 hours), 2 µg/mL (≈ 5.22 µM); against Serratia marcescens (Serratia marcescens, ATCC21074, 18 h) it was 0.25 µg/mL (≈ 0.652 µM). Besides, the MIC in the assay on Escherichia coli (18 h, Escherichia coli 13-43 (mcr-1), agar dilution, 35°C) was 0.5 µg/mL (≈ 1.3 µM); against Escherichia coli (18 h, Escherichia coli 17-R28 (CRE, NDM-1-producing), agar dilution, 35°C), 0.25 µg/mL (≈ 0.652 µM); against Escherichia coli (ATCC2469, 18 h, Escherichia coli ATCC 2469 (CRE, NDM-1-producing), agar dilution, 35°C, 18 hours), 0.25 µg/mL (≈ 0.652 µM); against Escherichia coli (ATCC35218, 18 h), 0.25 µg/mL (≈ 0.652 µM); in the assay on Enterobacter aerogenes (ATCC13048, 18 h), 0.5 µg/mL (≈ 1.3 µM); against Pantoea agglomerans (Pantoea agglomerans, ATCC27993, 18 h), 1 µg/mL (≈ 2.61 µM). The MIC against Proteus vulgaris (Proteus vulgaris, ATCC29905, 18 h) was found to be 0.12 µg/mL (≈ 0.313 µM); against Proteus mirabilis (Proteus mirabilis, ATCC49565, 18 h) it was 1 µg/mL (≈ 2.61 µM); in the assay with Pseudomonas aeruginosa (Pseudomonas aeruginosa, PAO1, 18 h) it was 1 µg/mL (≈ 2.61 µM); against Citrobacter freundii (Citrobacter freundii, ATCC43864, 18 h), 0.25 µg/mL (≈ 0.652 µM); in the assay with Shigella flexneri, 0.12 µg/mL (≈ 0.313 µM).
